This note sets out measurements from US10907181B2, “Biosynthetic pathways and products” (REGENTS OF THE UNIVERSITY OF MINNESOTA, priority 2013, dated 2021).

Series [1] in a line: Extraction of anhydromevalonolactone with different organic solvents (extract efficiency and partition coefficient Kd, solvent/water). The series is classed as physicochemical. From the text: Purification of anhydromevalonolactone also was studied by extraction with different organic solvents (Table 1). Approximately 96% of the anhydromevalonolactone was extracted when chloroform was applied at a 1:1 volume ratio. […] NMR analysis indicated the anhydromevalonolactone was in the lactone form, instead of equilibrating with its hydroxyacid form (FIG. 6).
The fermentation broth from the bioreactor was harvested by centrifuge, and then was discolored by activated charcoal. The test tubes were filled with 5 mL fermentation broth and concentrated H3PO4 or H2SO4, then autoclaved for one hour to make anhydromevalonate, and then the concentrations of mevalonate and anhydromevalonate were measured by HPLC. Immiscible organic solvents were used to extraction anhydromevalonate from the reaction mixture.

The nature of series [2]: liquid-liquid solvent extraction at equal volume ratio. To be noted: not told.
Series [3] can be described thus: liquid-liquid solvent extraction at equal volume ratio, HPLC quantification. To be noted: not told.

`CC1=CC(=O)OCC1` [Anhydromevalonolactone, anhydromevalonolactone]: the Anhydromevalonolactone extract efficiency in series [1] (solvent Benzene) was 65.26%; in series [1] (solvent CHC13 (chloroform), 1:1 volume ratio), 96.14%; in series [1] (solvent CHC13 (chloroform), 1:1 volume ratio, listed as anhydromevalonolactone) it was “Approximately 96%”; in series [1] (solvent DIBK), 44.15%; in series [1] (solvent MIBK), 79.90%; in series [1] (solvent Oley) it was 35.56%. For the same compound, in series [1] (solvent ethyl acetate), the Anhydromevalonolactone extract efficiency is on record as 79.67%. The results for the “partition coefficient (Kd)” value in series [2] and in series [3] were 25 concentration ratio (Kd) and 24.89 concentration ratio (Kd), respectively.
